# Tests used:
# Assay in all cases: relative viability (nuclei count vs DMSO), 5 days (fraction); higher = more cells survive
# [1] = compound: O=C(CCCCCCC(=O)Nc1ccccc1)NO [Vorinostat]
# In short: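 Lung cancer cell lines were seeded into 1536-well plates, kept overnight at 37 °C and pinned with five library-drug doses (not always all listed) spaced by √10. After 5 days, nuclei were Hoechst-stained, imaged at 4× and counted with MetaXpress. Viability is treated-well nuclei over vehicle-well nuclei, taken as a median across plates. Plates needed control CV below 25% and at least one doubling.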
# [2] = compound: O=C(CCCCCCC(=O)Nc1ccccc1)NO [Vorinostat] + CC(C)C[C@H](NC(=O)[C@H](Cc1ccccc1)NC(=O)c1cnccn1)B(O)O [Bortezomib] (partner 0.002 µM)
# In short: (§1)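 Values are medians from duplicate plates. Each reflects relative viability, defined as the nuclei count of treated wells over that of vehicle wells. Lung cancer cell lines in 1536-well plates were pin-tool dosed one day after seeding with one drug alone or with a fixed anchor-drug dose plus five library-drug doses (not always all listed) in √10 steps, then fixed, stained and imaged at 4× after 5 days.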
# [3] = compound: O=C(CCCCCCC(=O)Nc1ccccc1)NO [Vorinostat] + CC1(C)CCC(c2ccc(Cl)cc2)=C(CN2CCN(c3ccc(C(=O)NS(=O)(=O)c4ccc(N[C@H](CCN5CCOCC5)CSc5ccccc5)c(S(=O)(=O)C(F)(F)F)c4)cc3)CC2)C1 [Navitoclax] (partner 0.5 µM)
# In short: as §1
# [4] = compound: O=C(CCCCCCC(=O)Nc1ccccc1)NO [Vorinostat] + COc1cc2c(Oc3ccc(NC(=O)C4(C(=O)Nc5ccc(F)cc5)CC4)cc3F)ccnc2cc1OCCCN1CCOCC1 [Foretinib] (partner 0.25 µM)
# In short: as §1
# [5] = compound: O=C(CCCCCCC(=O)Nc1ccccc1)NO [Vorinostat] + CS(=O)(=O)CCNCc1ccc(-c2ccc3ncnc(Nc4ccc(OCc5cccc(F)c5)c(Cl)c4)c3c2)o1 [Lapatinib] (partner 2 µM)
# In short: as §1
# [6] = compound: O=C(CCCCCCC(=O)Nc1ccccc1)NO [Vorinostat] + CS(=O)(=O)N1CCN(Cc2cc3nc(-c4cccc5[nH]ncc45)nc(N4CCOCC4)c3s2)CC1 [Pictilisib] (partner 1 µM)
# In short: as §1
# [7] = compound: O=C(CCCCCCC(=O)Nc1ccccc1)NO [Vorinostat] + C[C@@H](Oc1cc(-c2cnn(C3CCNCC3)c2)cnc1N)c1c(Cl)ccc(F)c1Cl [Crizotinib] (partner 1 µM)
# In short: as §1
# [8] = compound: O=C(CCCCCCC(=O)Nc1ccccc1)NO [Vorinostat] + C[C@]1(O)C[C@@H](c2nc(-c3ccc4ccc(-c5ccccc5)nc4c3)c3c(N)nccn32)C1 [Linsitinib] (partner 1 µM)
# In short: as §1
# [9] = compound: O=C(CCCCCCC(=O)Nc1ccccc1)NO [Vorinostat] + Cc1nc(NC(=O)N2CCC[C@H]2C(N)=O)sc1-c1ccnc(C(C)(C)C(F)(F)F)c1 [Alpelisib] (partner 2 µM)
# In short: as §1
# [10] = compound: O=C(CCCCCCC(=O)Nc1ccccc1)NO [Vorinostat] + O=C(c1cc(Cc2n[nH]c(=O)c3ccccc23)ccc1F)N1CCN(C(=O)C2CC2)CC1 [Olaparib] (partner 8 µM)
# In short: as §1
# [11] = compound: O=C(CCCCCCC(=O)Nc1ccccc1)NO [Vorinostat] + CCNC(=O)c1noc(-c2cc(C(C)C)c(O)cc2O)c1-c1ccc(CN2CCOCC2)cc1 [Luminespib] (partner 0.01 µM)
# In short: as §1
# [12] = compound: O=C(CCCCCCC(=O)Nc1ccccc1)NO [Vorinostat] + COc1cccc2cc(-c3nc([C@H]4CC[C@H](C(=O)O)CC4)n4ncnc(N)c34)[nH]c12 [OSI-027] (partner 0.5 µM)
# In short: as §1
# [13] = compound: O=C(CCCCCCC(=O)Nc1ccccc1)NO [Vorinostat] + Cc1cc(Nc2cc(N3CCN(C)CC3)nc(Sc3ccc(NC(=O)C4CC4)cc3)n2)n[nH]1 [Tozasertib] (partner 0.1 µM)
# In short: as §1
# [14] = compound: O=C(CCCCCCC(=O)Nc1ccccc1)NO [Vorinostat] + Cc1nc(Nc2ncc(C(=O)Nc3c(C)cccc3Cl)s2)cc(N2CCN(CCO)CC2)n1 [Dasatinib] (partner 0.075 µM)
# In short: as §1
# [15] = compound: O=C(CCCCCCC(=O)Nc1ccccc1)NO [Vorinostat] + N=C(N)NC(=N)NCCc1ccccc1 [Phenformin] (partner 250 µM)
# In short: as §1
# [16] = compound: O=C(CCCCCCC(=O)Nc1ccccc1)NO [Vorinostat] + CC(=O)Nc1cccc(-n2c(=O)n(C3CC3)c(=O)c3c(Nc4ccc(I)cc4F)n(C)c(=O)c(C)c32)c1 [Trametinib] (partner 0.02 µM)
# In short: as §1
# [17] = compound: O=C(CCCCCCC(=O)Nc1ccccc1)NO [Vorinostat] + CC(=O)c1c(C)c2cnc(Nc3ccc(N4CCNCC4)cn3)nc2n(C2CCCC2)c1=O [Palbociclib] (partner 0.5 µM)
# In short: as §1
# [18] = compound: O=C(CCCCCCC(=O)Nc1ccccc1)NO [Vorinostat] + NC(=O)Nc1cc(-c2cccc(F)c2)sc1C(=O)N[C@H]1CCCNC1 [AZD7762] (partner 0.2 µM)
# In short: as §1
# [19] = compound: O=C(CCCCCCC(=O)Nc1ccccc1)NO [Vorinostat] + Nc1nc2[nH]cc(CCc3ccc(C(=O)N[C@@H](CCC(=O)O)C(=O)O)cc3)c2c(=O)[nH]1 [Pemetrexed] (partner 0.2 µM)
# In short: as §1
# [20] = compound: O=C(CCCCCCC(=O)Nc1ccccc1)NO [Vorinostat] + Nc1ncn([C@H]2C[C@H](O)[C@@H](CO)O2)c(=O)n1 [Decitabine] (partner 2 µM)
# In short: as §1
cell line,measurement,setting,value
NCI-H1299,relative viability,[1]; 0.253 µM,1.06
same,relative viability,[1]; 0.8 µM,0.979
same,relative viability,[1]; 2.53 µM,0.786
same,relative viability,[1]; 8 µM,0.36
same,relative viability,[2]; first compound 0.253 µM,1.07
same,relative viability,[2]; first compound 0.8 µM,1.03
same,relative viability,[2]; first compound 2.53 µM,0.826
same,relative viability,[2]; first compound 8 µM,0.343
same,relative viability,[3]; first compound 0.253 µM,1.07
same,relative viability,[3]; first compound 0.8 µM,1
same,relative viability,[3]; first compound 2.53 µM,0.767
same,relative viability,[3]; first compound 8 µM,0.444
same,relative viability,[4]; first compound 0.253 µM,1.05
same,relative viability,[4]; first compound 0.8 µM,1.06
same,relative viability,[4]; first compound 2.53 µM,0.717
same,relative viability,[4]; first compound 8 µM,0.277
same,relative viability,[5]; first compound 0.253 µM,0.979
same,relative viability,[5]; first compound 0.8 µM,0.87
same,relative viability,[5]; first compound 2.53 µM,0.736
same,relative viability,[5]; first compound 8 µM,0.466
same,relative viability,[6]; first compound 0.253 µM,1.1
same,relative viability,[6]; first compound 0.8 µM,0.677
same,relative viability,[6]; first compound 2.53 µM,0.221
same,relative viability,[6]; first compound 8 µM,0.075
same,relative viability,[7]; first compound 0.253 µM,0.992
same,relative viability,[7]; first compound 0.8 µM,0.812
same,relative viability,[7]; first compound 2.53 µM,0.554
same,relative viability,[7]; first compound 8 µM,0.291
same,relative viability,[8]; first compound 0.253 µM,1.15
same,relative viability,[8]; first compound 0.8 µM,0.923
same,relative viability,[8]; first compound 2.53 µM,0.51
same,relative viability,[8]; first compound 8 µM,0.265
same,relative viability,[9]; first compound 0.253 µM,1.15
same,relative viability,[9]; first compound 0.8 µM,1.05
same,relative viability,[9]; first compound 2.53 µM,0.789
same,relative viability,[9]; first compound 8 µM,0.454
same,relative viability,[10]; first compound 0.253 µM,1
same,relative viability,[10]; first compound 0.8 µM,0.909
same,relative viability,[10]; first compound 2.53 µM,0.642
same,relative viability,[10]; first compound 8 µM,0.329
NCI-H1623,relative viability,[1]; 0.253 µM,0.916
same,relative viability,[1]; 0.8 µM,0.948
same,relative viability,[1]; 2.53 µM,0.358
same,relative viability,[1]; 8 µM,0.217
same,relative viability,[11]; first compound 0.253 µM,0.529
same,relative viability,[11]; first compound 0.8 µM,0.564
same,relative viability,[11]; first compound 2.53 µM,0.398
same,relative viability,[11]; first compound 8 µM,0.291
same,relative viability,[4]; first compound 0.253 µM,0.918
same,relative viability,[4]; first compound 0.8 µM,0.781
same,relative viability,[4]; first compound 2.53 µM,0.42
same,relative viability,[4]; first compound 8 µM,0.233
same,relative viability,[12]; first compound 0.253 µM,0.462
same,relative viability,[12]; first compound 0.8 µM,0.392
same,relative viability,[12]; first compound 2.53 µM,0.281
same,relative viability,[12]; first compound 8 µM,0.209
same,relative viability,[13]; first compound 0.253 µM,0.41
same,relative viability,[13]; first compound 0.8 µM,0.408
same,relative viability,[13]; first compound 2.53 µM,0.283
same,relative viability,[13]; first compound 8 µM,0.217
same,relative viability,[14]; first compound 0.253 µM,0.387
same,relative viability,[14]; first compound 0.8 µM,0.521
same,relative viability,[14]; first compound 2.53 µM,0.436
same,relative viability,[14]; first compound 8 µM,0.203
same,relative viability,[15]; first compound 0.253 µM,0.61
same,relative viability,[15]; first compound 0.8 µM,0.564
same,relative viability,[15]; first compound 2.53 µM,0.462
same,relative viability,[15]; first compound 8 µM,0.225
NCI-H1648,relative viability,[1]; 0.253 µM,0.815
same,relative viability,[1]; 0.8 µM,0.725
same,relative viability,"[1]; 1 µM, anchor plate",0.596
same,relative viability,[1]; 2.53 µM,0.252
same,relative viability,[1]; 8 µM,0.209
same,relative viability,[16]; first compound 0.253 µM,0.596
same,relative viability,[16]; first compound 0.8 µM,0.494
same,relative viability,[16]; first compound 2.53 µM,0.191
same,relative viability,[16]; first compound 8 µM,0.191
same,relative viability,[17]; first compound 0.253 µM,0.278
same,relative viability,[17]; first compound 0.8 µM,0.239
same,relative viability,[17]; first compound 2.53 µM,0.224
same,relative viability,[17]; first compound 8 µM,0.213
same,relative viability,[12]; first compound 0.253 µM,0.252
same,relative viability,[12]; first compound 0.8 µM,0.267
same,relative viability,[12]; first compound 2.53 µM,0.28
same,relative viability,[12]; first compound 8 µM,0.263
same,relative viability,[13]; first compound 0.253 µM,0.457
same,relative viability,[13]; first compound 0.8 µM,0.319
same,relative viability,[13]; first compound 2.53 µM,0.161
same,relative viability,[13]; first compound 8 µM,0.158
same,relative viability,[18]; first compound 0.253 µM,0.51
same,relative viability,[18]; first compound 0.8 µM,0.496
same,relative viability,[18]; first compound 2.53 µM,0.331
same,relative viability,[18]; first compound 8 µM,0.212
same,relative viability,[19]; first compound 0.253 µM,0.598
same,relative viability,[19]; first compound 0.8 µM,0.595
same,relative viability,[19]; first compound 2.53 µM,0.428
same,relative viability,[19]; first compound 8 µM,0.241
same,relative viability,[20]; first compound 0.253 µM,0.414
same,relative viability,[20]; first compound 0.8 µM,0.473
same,relative viability,[20]; first compound 2.53 µM,0.215
same,relative viability,[20]; first compound 8 µM,0.22
same,relative viability,[10]; first compound 0.253 µM,1.13
same,relative viability,[10]; first compound 0.8 µM,0.674
same,relative viability,[10]; first compound 2.53 µM,0.212
same,relative viability,[10]; first compound 8 µM,0.201

# Source: the supplement of paper PMC10307832
